From patent US4873265A, “Anti-infective methods and compositions” (priority 1988, dated 1989) come the findings set out here.

Assay type in all cases: cell-based
In one assay the test system is C. albicans. In words: In vitro antimycotic activity, MIC, C. albicans. Particulars: for MIC: Candida albicans. As to the method: (§1) A laboratory propagated strain of C. albicans, originally isolated from an infected skin lesion of a patient, was grown in Mueller-Hinton broth for 18 hours at 35° C. Plates were then seeded with the broth culture and allowed to air-dry at room temperature (22° C.) for about 10-15 minutes. Forty lambda of the 2% aqueous solutions or of serial half-step dilutions in water were then pipetted onto the seeded Mueller-Hinton agar plates. The plates were then incubated for 24 hours at 35° C. and zones of inhibition were then recorded. The Minimum Inhibitory Concentration (MIC) was the lowest concentration of the test material which produced a zone of inhibition against the organism. The MIC for each test material (antihistamine) is listed in the enclosed table. Table 2 lists the MIC's against C. albicans while Table 3 lists the MIC's against in vitro-grown spores of the human pathogen T. mentagrophytes. This strain was isolated from a human infection and was grown on Sabourand-Dextrose agar for 2 weeks. The spores were collected by flooding the agar plates after the 2 week growth period with a 0.01% solution of Tween-80 (sorbitol ester) and then filtering the Tween solution through gauze mesh to collect the suspension of spores. Sabourand-Dextrose agar plates are then seeded with the spore suspension. After air-drying, 40 lambda of each test solution is pipetted onto the plates and the plates left to incubate for 4 days at 22° C.

The test system of another assay is Micrococcus luteous. In words: In vitro zone of inhibition screening, MIC, Micrococcus luteous. To be noted: aqueous solution, seeded Mueller-Hinton agar, 24 hours at 35° C.; for MIC: Micrococcus, read-out: Minimum Inhibitory Concentration, ML. As to the method: (§2) The 2% solutions listed above were diluted further with sterile water, using serial half-step dilutions. Forty lambda of each were then pipetted onto seeded Mueller-Hinton agar plates. The agar plates were then incubated for 24 hours at 35° C. and zones of inhibition were then recorded. The Minimum Inhibitory Concentration (MIC) was the lowest concentration of the test material which produced a zone of inhibition against the organism.
(§3) Stock cutaneous strains of each organism were grown in Mueller-Hinton broth for 18 hours at 35° C. Plates were seeded with the 18 hour broth culture, allowed to air dry at room temperature (about 10 minutes) and then used for determination of zones of inhibition as outlined above.

The next assay has as its system Escherichia coli. Put plainly: In vitro zone of inhibition screening, MIC, Escherichia coli. To be noted: for MIC: Escherichia coli. As to the method: as §2, §3
The next assay concerns Staphylococcus aureus. In words: In vitro zone of inhibition screening, MIC, Staphylococcus aureus. To be noted: aqueous solution, seeded Mueller-Hinton agar, 24 hours at 35° C.; for MIC: Staphylococcus aureus, read-out: Minimum Inhibitory Concentration, SA. As to the method: as §2, §3
For the next assay, the system named is Cutaneous Bacteria. In words: In vitro zone of inhibition screening, overall (cutaneous bacteria). Particulars: for Rank Order: highest inhibition (rank 1) to lowest (rank 5); for minimum inhibitory concentrations as low as: in vitro antibacterial testing, lowest MIC. As to the method: as §2, §3
The next assay relates to Pseudomonas aeroginosa. Put plainly: In vitro zone of inhibition screening, MIC, Pseudomonas aeroginosa. To be noted: for MIC: Pseudomonas. On the procedure: as §2, §3
The subject of assay [1] is Spores of T. Mentagrophytes. Put plainly: In vitro antimycotic activity, MIC, spores of T. mentagrophytes. To be noted: for MIC: Trichophyton mentagrophytes, 96 h; for activity against T. mentagrophytes: in vitro, in words. As to the method:
as §1

Assay [2] concerns Corenybacterium minutissimum. In words: In vitro zone of inhibition screening, MIC, Corenybacterium minutissimum. On the procedure: as §2, §3
The mark [3] stands for this setting: aqueous solution, Mueller-Hinton agar, 24 hours at 35° C.
Setting [4] is: aqueous solution, seeded Mueller-Hinton agar, 24 hours at 35° C.
Setting [5] is: aqueous solution, Sabourand-Dextrose agar, 4 days at 22° C.
The mark [6] stands for this setting: aqueous solution, Mueller-Hinton agar, 24 hours at 35° C., read-out: MIC, C. albicans.
[7] abbreviates: aqueous solution, seeded Mueller-Hinton agar, 24 hours at 35° C., read-out: Minimum Inhibitory Concentration, EC.
Setting [8] is: aqueous solution, seeded Mueller-Hinton agar, 24 hours at 35° C., read-out: Minimum Inhibitory Concentration, PA.
Where [9] appears, read: aqueous solution, Sabourand-Dextrose agar, 4 days at 22° C., read-out: MIC, spores of T. Mentagrophytes.
The mark [10] stands for this setting: aqueous solution, seeded Mueller-Hinton agar, 24 hours at 35° C., read-out: Minimum Inhibitory Concentration, CM.

≈ marks a conversion by molar mass, not a printed value. Like-named read-outs stand apart in the source and are kept apart here.

In the case of `CN(C)CCOC(c1ccccc1)c1ccccc1` [Dimenhydrinate, dimenhydrinate], the “MIC, C. albicans” value in the assay with C. albicans (setting [3]) is 20000 µg/mL (≈ 78.3 mM). The “Minimum Inhibitory Concentration, ML” value with Micrococcus luteous was 10.0 mg/mL. In addition, the “Minimum Inhibitory Concentration, EC” value in the assay with Escherichia coli (setting [4]) stood at 5.0 mg/mL. Moreover, the “Minimum Inhibitory Concentration, SA” value in the assay on Staphylococcus aureus was 10.0 mg/mL. Further, in the assay with Cutaneous Bacteria, the “Rank Order” value is reported as 3 and the “minimum inhibitory concentrations as low as” value is given as 0.5%. The “Minimum Inhibitory Concentration, PA” value in the assay on Pseudomonas aeroginosa (setting [4]) came out at 10.0 mg/mL. Besides, in assay [1] (setting [5]), the “MIC, spores of T. Mentagrophytes” value turned out to be 20000 µg/mL. Also, the “Minimum Inhibitory Concentration, CM” value in assay [2] (setting [4]) is 5.0 mg/mL.

Take `CN(C)CCOC(C)(c1ccccc1)c1ccccn1` (stereo not shown) [Doxylamine]: the “MIC, C. albicans” value against C. albicans (setting [3]) was “No inhibition”. Also, the “Rank Order” value in the assay with Cutaneous Bacteria turned out to be 5. In addition, the “MIC, spores of T. Mentagrophytes” value in assay [1] (setting [5]) was “No inhibition”.

On to `CN(C)CCC(c1ccc(Br)cc1)c1ccccn1` (stereo not shown) [Brompheniramine, brompheniramine], for which the MIC with C. albicans (setting [6]) stood at 20000 µg/mL (≈ 62.6 mM); in the assay on Micrococcus luteous, 5000 µg/mL (≈ 15.7 mM); in the assay with Escherichia coli (setting [7]), 5000 µg/mL (≈ 15.7 mM); with Staphylococcus aureus, 10000 µg/mL (≈ 31.3 mM); in the assay on Pseudomonas aeroginosa (setting [8]) it was 10000 µg/mL (≈ 31.3 mM); in assay [1] (setting [9]), 20000 µg/mL (≈ 62.6 mM). Besides, in assay [2] (setting [10]), the MIC came to 3000 µg/mL (≈ 9.4 mM). Further, in the assay with Cutaneous Bacteria, the “Rank Order” value was 2. In the assay on Cutaneous Bacteria, the “minimum inhibitory concentrations as low as” value is reported as 0.5-1%.

In the case of `CN(C)CCC(c1ccc(Cl)cc1)c1ccccn1` (stereo not shown) [Chlorpheniramine, chlorpheniramine], the MIC in the assay on C. albicans (setting [6]) worked out at 20000 µg/mL (≈ 72.8 mM); in the assay with Micrococcus luteous it was 5000 µg/mL (≈ 18.2 mM); with Escherichia coli (setting [7]), 5000 µg/mL (≈ 18.2 mM); in the assay on Staphylococcus aureus, 10000 µg/mL (≈ 36.4 mM); in the assay with Pseudomonas aeroginosa (setting [8]) it was 10000 µg/mL (≈ 36.4 mM); in assay [2] (setting [10]), 5000 µg/mL (≈ 18.2 mM). In the assay on Cutaneous Bacteria, the “Rank Order” value worked out at 2. The “MIC, spores of T. Mentagrophytes” value in assay [1] (setting [5]) was “No inhibition”. The “activity against T. mentagrophytes” value in assay [1] was “ineffective”.

Consider `CN(C)CCN(Cc1ccccc1)c1ccccn1` [Tripelennamine, tripelennamine], for which the MIC turned out to be 20000 µg/mL (≈ 78.3 mM) in the assay with C. albicans (setting [6]); 10000 µg/mL (≈ 39.2 mM) in the assay on Micrococcus luteous; 5000 µg/mL (≈ 19.6 mM) with Escherichia coli (setting [7]); 10000 µg/mL (≈ 39.2 mM) in the assay with Staphylococcus aureus; 10000 µg/mL (≈ 39.2 mM) with Pseudomonas aeroginosa (setting [8]); 20000 µg/mL (≈ 78.3 mM) in assay [1] (setting [9]). Besides, the MIC in assay [2] (setting [10]) was determined as 5000 µg/mL (≈ 19.6 mM). Further, the “Rank Order” value in the assay with Cutaneous Bacteria stood at 3. The “minimum inhibitory concentrations as low as” value in the assay with Cutaneous Bacteria is given as 0.5-1%.

On to `COc1ccc(CN(CCN(C)C)c2ccccn2)cc1` [Pyrilamine], for which the “MIC, C. albicans” value in the assay on C. albicans (setting [3]) was “No inhibition”. Besides, the MIC in the assay on Escherichia coli (setting [7]) was 10000 µg/mL (≈ 35 mM); in assay [1] (setting [9]), 20000 µg/mL (≈ 70.1 mM); in assay [2] (setting [10]), 10000 µg/mL (≈ 35 mM). Besides, the “Rank Order” value in the assay with Cutaneous Bacteria stood at 4. Further, in assay [1], the “activity against T. mentagrophytes” value is given as “showed activity”.

Take `Cc1ccc(/C(=C\CN2CCCC2)c2ccccn2)cc1` [Triprolidine, triprolidine]: the MIC in the assay with C. albicans (setting [6]) was found to be 20000 µg/mL (≈ 71.8 mM); in the assay on Micrococcus luteous, 10000 µg/mL (≈ 35.9 mM); with Escherichia coli (setting [7]) it was 5000 µg/mL (≈ 18 mM); with Staphylococcus aureus, 10000 µg/mL (≈ 35.9 mM); in the assay with Pseudomonas aeroginosa (setting [8]), 10000 µg/mL (≈ 35.9 mM); in assay [2] (setting [10]), 5000 µg/mL (≈ 18 mM). The “Rank Order” value in the assay on Cutaneous Bacteria is 3. For the same compound, the “minimum inhibitory concentrations as low as” value in the assay with Cutaneous Bacteria is listed as 0.5-1%. For the same compound, the “MIC, spores of T. Mentagrophytes” value in assay [1] (setting [5]) is listed as “No inhibition”. For the same compound, the “activity against T. mentagrophytes” value in assay [1] is “ineffective”.

Turning to `CN(C)CCOC(c1ccccc1)c1ccccc1` [Diphenhydramine, diphenhydramine], the MIC amounted to 10000 µg/mL (≈ 39.2 mM) with C. albicans (24 h, read-out: MIC, C. albicans, aqueous solution, Mueller-Hinton agar, 24 hours at 35° C.); 2500 µg/mL (≈ 9.79 mM) in the assay with Escherichia coli (24 h, read-out: Minimum Inhibitory Concentration, EC, aqueous solution, seeded Mueller-Hinton agar, 24 hours at 35° C.); 5000 µg/mL (≈ 19.6 mM) in the assay on Pseudomonas aeroginosa (24 h, read-out: Minimum Inhibitory Concentration, PA, aqueous solution, seeded Mueller-Hinton agar, 24 hours at 35° C.); 10000 µg/mL (≈ 39.2 mM) in assay [1] (read-out: MIC, spores of T. Mentagrophytes, aqueous solution, Sabourand-Dextrose agar, 4 days at 22° C.); 2500 µg/mL (≈ 9.79 mM) in assay [2] (24 h, read-out: Minimum Inhibitory Concentration, CM, aqueous solution, seeded Mueller-Hinton agar, 24 hours at 35° C.). Besides, in the assay with Micrococcus luteous, the “Minimum Inhibitory Concentration, ML” value was 2.5 mg/mL. Also, in the assay with Staphylococcus aureus, the “Minimum Inhibitory Concentration, SA” value amounted to 2.5 mg/mL. Further, in the assay with Cutaneous Bacteria, the “Rank Order” value was found to be 1. Also, the “minimum inhibitory concentrations as low as” value in the assay on Cutaneous Bacteria came to 0.25%.
